Assay results from patent US8232059B2, “Method of identifying A. baumannii with OXA-131-like drug resistance in diabetic patients” (priority 2010, dated 2012).
In brackets after ≈: the same amount, converted by molar mass.

Test system: A. baumannii isolates
Experiment: MICs (minimum inhibitory concentrations) for susceptibility to known antibiotics, British Society for Antimicrobial Chemotherapy guidelines
Type: cell-based, Acinetobacter baumannii
Details: 20 clinical isolates from diabetic patients; for MIC: Acinetobacter baumannii
Source text: All twenty isolates were further tested for MICs (minimum inhibitory concentrations) for susceptibility to several known antibiotics using the British Society for Antimicrobial Chemotherapy guidelines.

CC1(C)S[C@@H]2[C@H](NC(=O)[C@H](N)c3ccccc3)C(=O)N2[C@H]1C(=O)O [Ampicillin]
% resistance: 100% | No. of resistant isolates: 20 | susceptibility/resistance of the isolates in words: highly resistant

O=C(N[C@H](CO)[C@H](O)c1ccc([N+](=O)[O-])cc1)C(Cl)Cl [Chloramphenicol]
% resistance: 100% | No. of resistant isolates: 20 | susceptibility/resistance of the isolates in words: highly resistant | MIC: > 128 mg/L

C[C@@H](O)[C@H]1C(=O)N2C(C(=O)O)=C(S[C@@H]3CN[C@H](C(=O)Nc4cccc(C(=O)O)c4)C3)[C@H](C)[C@H]12 [Ertapenem]
% resistance: 100% | No. of resistant isolates: 20 | susceptibility/resistance of the isolates in words: highly resistant | MIC: 4 to 64 mg/L (≈ 8.41 to 135 µM)

C[C@@H](O)[C@H]1C(=O)N2C(C(=O)O)=C(SCCN=CN)C[C@H]12 [Imipenem]
% resistance: 0% | No. of resistant isolates: 0 | MIC: 0.25 to 2 mg/L (≈ 0.835 to 6.68 µM)

C[C@@H](O)[C@H]1C(=O)N2C(C(=O)O)=C(S[C@@H]3CN[C@H](C(=O)N(C)C)C3)[C@H](C)[C@H]12 [Meropenem]
% resistance: 20% | No. of resistant isolates: 4 | susceptibility/resistance of the isolates in words: all but four isolates (which had low-level resistance) were susceptible | MIC: 4 to 8 mg/L (≈ 10.4 to 20.9 µM)

CCn1cc(C(=O)O)c(=O)c2ccc(C)nc21 [Nalidixic Acid]
% resistance: 75% | No. of resistant isolates: 15 | susceptibility/resistance of the isolates in words: majority was also resistant

CC1COc2c(N3CCN(C)CC3)c(F)cc3c(=O)c(C(=O)O)cn1c23 (stereo not shown) [Ofloxacin]
% resistance: 70% | No. of resistant isolates: 14 | MIC: 1 to 32 mg/L (≈ 2.77 to 88.6 µM)

Cc1onc(-c2ccccc2)c1C(=O)N[C@@H]1C(=O)N2[C@@H]1SC(C)(C)[C@@H]2C(=O)O [Oxacillin]
% resistance: 100% | No. of resistant isolates: 20 | susceptibility/resistance of the isolates in words: highly resistant | MIC: > 128 mg/L

CO[C@H]1/C=C/O[C@@]2(C)Oc3c(C)c(O)c4c(O)c(c(/C=N/N5CCN(C)CC5)c(O)c4c3C2=O)NC(=O)/C(C)=C\C=C\[C@H](C)[C@H](O)[C@@H](C)[C@@H](O)[C@@H](C)[C@H](OC(C)=O)[C@@H]1C [Rifampicin]
% resistance: 80% | No. of resistant isolates: 16 | MIC: 4 to 32 mg/L (≈ 4.86 to 38.9 µM)

CC1(C)[C@H](C(=O)O)N2C(=O)C[C@H]2S1(=O)=O [Sulbactam]
% resistance: 100% | No. of resistant isolates: 20 | susceptibility/resistance of the isolates in words: highly resistant

CN(C)[C@@H]1C(O)=C(C(N)=O)C(=O)[C@@]2(O)C(O)=C3C(=O)c4c(O)cccc4[C@@](C)(O)[C@H]3C[C@@H]12 [Tetracycline]
% resistance: 100% | No. of resistant isolates: 20

Colistin
% resistance: 0% | MIC range: 0.25 to 0.5 mg/L | No. of resistant isolates: 0 | susceptibility/resistance of the isolates in words: susceptible

Gentamicin
% resistance: 20% | No. of resistant isolates: 4 | susceptibility/resistance of the isolates in words: majority was also resistant
